Assays:
D(1B) dopamine receptor = D(1B) dopamine receptor (Homo sapiens, UniProt P21918); assay: Positive allosteric modulator activity at human dopamine D5 receptor expressed in CHO-K1 cells assessed as potentiation of dopamine-induced beta-arrestin2 recruitment by measuring dopamine EC50 at 50 uM incubated for 90 mins by PathHunter assay (Rvb = 81.7 nM)
D(1A) dopamine receptor = D(1A) dopamine receptor (Homo sapiens, UniProt P21728); assay: Positive allosteric modulator activity at human dopamine D1 receptor expressed in HEK293 cells assessed as potentiation of dopamine-induced cAMP accumulation by measuring dopamine EC50 at 50 uM measured after 30 mins by HitHunter assay (Rvb = 214 nM)
Sequence of D(1A) dopamine receptor (P21728 whole entry): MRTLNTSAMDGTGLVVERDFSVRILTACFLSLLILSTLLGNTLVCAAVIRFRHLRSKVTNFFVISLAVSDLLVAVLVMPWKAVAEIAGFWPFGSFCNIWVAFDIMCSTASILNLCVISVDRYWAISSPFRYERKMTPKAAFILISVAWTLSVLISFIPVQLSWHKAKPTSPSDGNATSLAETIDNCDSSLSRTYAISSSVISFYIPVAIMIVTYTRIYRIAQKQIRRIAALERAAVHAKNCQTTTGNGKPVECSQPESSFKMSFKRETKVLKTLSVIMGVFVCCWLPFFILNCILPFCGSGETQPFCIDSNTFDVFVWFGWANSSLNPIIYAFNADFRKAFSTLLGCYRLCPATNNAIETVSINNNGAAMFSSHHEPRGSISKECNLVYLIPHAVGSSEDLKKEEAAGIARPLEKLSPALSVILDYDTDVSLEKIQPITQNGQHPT

Sequence of D(1B) dopamine receptor (P21918 whole entry): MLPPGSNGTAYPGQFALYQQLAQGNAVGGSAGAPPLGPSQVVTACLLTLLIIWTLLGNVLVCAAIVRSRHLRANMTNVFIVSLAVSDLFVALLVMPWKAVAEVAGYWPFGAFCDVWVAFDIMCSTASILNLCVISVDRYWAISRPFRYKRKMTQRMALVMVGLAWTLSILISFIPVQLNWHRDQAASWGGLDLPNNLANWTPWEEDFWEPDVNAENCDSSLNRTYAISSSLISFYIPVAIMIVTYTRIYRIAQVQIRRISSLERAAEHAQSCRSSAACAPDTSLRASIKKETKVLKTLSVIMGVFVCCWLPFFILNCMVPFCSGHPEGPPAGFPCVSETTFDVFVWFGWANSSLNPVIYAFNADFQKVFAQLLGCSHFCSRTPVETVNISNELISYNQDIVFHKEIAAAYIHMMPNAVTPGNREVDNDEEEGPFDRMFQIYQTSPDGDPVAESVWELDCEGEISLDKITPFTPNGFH

**Q.** With `Cn1c2ccccc2c(=O)c2c(=O)n(-c3ccccc3)c(C3CC3)nc21` as the molecule, how does the EC50 (D(1B) dopamine receptor) read?
**A.** Its EC50 is 0.095 µM.

**Q.** For `Cn1c2ccccc2c(=O)c2c(=O)[nH]c(C3CCCC3)nc21`, which EC50 (D(1B) dopamine receptor) is on record?
**A.** The EC50 was 0.082 µM.

**Q.** `COc1ccc(-n2c(CC3CCCCC3)nc3c(c(=O)c4ccccc4n3C)c2=O)cc1Cl` was tested. Which EC50 (D(1B) dopamine receptor) did it give?
**A.** Its EC50 is 0.094 µM.

**Q.** How did the EC50 (D(1B) dopamine receptor) turn out when `Cn1c2ccccc2c(=O)c2c(=O)n(-c3cccc(Cl)c3)c(CC3CCCCC3)nc21` was run?
**A.** The EC50 was 0.095 µM.

**Q.** `Cn1c2ccccc2c(=O)c2c(=O)n(-c3ccc(Cl)cc3)c(CC3CCCCC3)nc21` was tested. Which EC50 (D(1B) dopamine receptor) did it give?
**A.** The EC50 was 0.074 µM.

**Q.** Which EC50 (D(1B) dopamine receptor) does the source give for `Cc1ccc(-n2c(CC3CCCCC3)nc3c(c(=O)c4ccccc4n3C)c2=O)cc1` here?
**A.** Its EC50 is 0.168 µM.

**Q.** Which EC50 (D(1B) dopamine receptor) does the source give for `Cn1c2ccccc2c(=O)c2c(=O)n(-c3ccccc3)c(CC3CCCCC3)nc21` here?
**A.** The EC50 was 0.049 µM.

**Q.** `COc1ccc(-n2c(C3CCCC3)nc3c(c(=O)c4ccccc4n3C)c2=O)cc1Cl` was tested. Which EC50 (D(1B) dopamine receptor) did it give?
**A.** Its EC50 is 0.028 µM.

**Q.** `COc1ccc(-n2c(C3CCCC3)nc3c(c(=O)c4ccccc4n3C)c2=O)cc1` was tested. Which EC50 (D(1B) dopamine receptor) did it give?
**A.** The EC50 was 0.025 µM.

**Q.** How did the EC50 (D(1B) dopamine receptor) turn out when `Cn1c2ccccc2c(=O)c2c(=O)n(-c3cccc(Cl)c3)c(C3CCCC3)nc21` was run?
**A.** Its EC50 is 0.043 µM.

**Q.** Which EC50 (D(1B) dopamine receptor) does the source give for `Cn1c2ccccc2c(=O)c2c(=O)n(-c3ccc(Cl)cc3)c(C3CCCC3)nc21` here?
**A.** Its EC50 is 0.043 µM.

**Q.** For `Cc1ccc(-n2c(C3CCCC3)nc3c(c(=O)c4ccccc4n3C)c2=O)cc1`, which EC50 (D(1B) dopamine receptor) is on record?
**A.** Its EC50 is 0.027 µM.

**Q.** How did the EC50 (D(1B) dopamine receptor) turn out when `Cn1c2ccccc2c(=O)c2c(=O)n(-c3ccccc3)c(C3CCCC3)nc21` was run?
**A.** Its EC50 is 0.08 µM.

**Q.** How did the EC50 (D(1B) dopamine receptor) turn out when `COc1ccc(-n2c(CC(C)C)nc3c(c(=O)c4ccccc4n3C)c2=O)cc1Cl` was run?
**A.** Its EC50 is 0.058 µM.

**Q.** Which EC50 (D(1B) dopamine receptor) does the source give for `COc1ccc(-n2c(CC(C)C)nc3c(c(=O)c4ccccc4n3C)c2=O)cc1` here?
**A.** Its EC50 is 0.034 µM.

**Q.** `CC(C)Cc1nc2c(c(=O)c3ccccc3n2C)c(=O)n1-c1cccc(Cl)c1` was tested. Which EC50 (D(1B) dopamine receptor) did it give?
**A.** Its EC50 is 0.063 µM.

**Q.** Which EC50 (D(1B) dopamine receptor) does the source give for `CC(C)Cc1nc2c(c(=O)c3ccccc3n2C)c(=O)n1-c1ccc(Cl)cc1` here?
**A.** Its EC50 is 0.056 µM.

**Q.** Which EC50 (D(1B) dopamine receptor) does the source give for `Cc1ccc(-n2c(CC(C)C)nc3c(c(=O)c4ccccc4n3C)c2=O)cc1` here?
**A.** The EC50 was 0.044 µM.

**Q.** `CC(C)Cc1nc2c(c(=O)c3ccccc3n2C)c(=O)n1-c1ccccc1` was tested. Which EC50 (D(1B) dopamine receptor) did it give?
**A.** Its EC50 is 0.103 µM.

**Q.** `COc1ccc(-n2c(C3CCCCC3)nc3c(c(=O)c4ccccc4n3C)c2=O)cc1Cl` was tested. Which EC50 (D(1B) dopamine receptor) did it give?
**A.** Its EC50 is 0.059 µM.

**Q.** How did the EC50 (D(1B) dopamine receptor) turn out when `COc1ccc(-n2c(C3CCCCC3)nc3c(c(=O)c4ccccc4n3C)c2=O)cc1` was run?
**A.** The EC50 was 0.062 µM.

**Q.** For `Cn1c2ccccc2c(=O)c2c(=O)n(-c3cccc(Cl)c3)c(C3CCCCC3)nc21`, which EC50 (D(1B) dopamine receptor) is on record?
**A.** Its EC50 is 0.08 µM.

**Q.** `Cn1c2ccccc2c(=O)c2c(=O)n(-c3ccc(Cl)cc3)c(C3CCCCC3)nc21` was tested. Which EC50 (D(1B) dopamine receptor) did it give?
**A.** Its EC50 is 0.044 µM.

**Q.** How did the EC50 (D(1B) dopamine receptor) turn out when `Cc1ccc(-n2c(C3CCCCC3)nc3c(c(=O)c4ccccc4n3C)c2=O)cc1` was run?
**A.** Its EC50 is 0.027 µM.

**Q.** `Cn1c2ccccc2c(=O)c2c(=O)n(-c3ccccc3)c(C3CCCCC3)nc21` was tested. Which EC50 (D(1A) dopamine receptor) did it give?
**A.** Its EC50 is 0.123 µM.

**Q.** And the EC50 (D(1B) dopamine receptor)?
**A.** Its EC50 is 0.029 µM.
